# “And” between values parts separate entries of the source, which are not always exact repeats. Equal values may be shown once.
# Legend:
# mpkCCD cells = assay: Forskolin-induced cAMP production in mpkCCD cells; type: cell-based, mouse
# Description: 152 Supplementary Methods
# 154 We quantified cAMP production with the cAMP dynamic 2 assay kit (Cisbio Bioassays,
# 155 Codolet, France), which is based on homogeneous time-resolved fluorescence (HTRF)
# 156 technology, as previously described 1. For cells expressing the Apelin-R, 2000 CHO cells/well
# 157 stably expressing rat apelinR-EGFP (clone B70) were added to the 384-well plate and
# 158 stimulated with 5 µmol/l forskolin (FSK) and various concentrations (0.01 pmol/l to 100
# For cells expressing the V2-R, HEK-
# 160 293T cells were transiently transfected with the human V2-R (cDNA Resource Center), after
# 161 48h, 4000 cells/well were added to white 384-well optiplates and stimulated either with 5
# Cells were then lysed, and
# 165 cAMP levels were determined in accordance with the kit manufacturer’s instructions.
# 166 Stimulation was performed in stimulation buffer-IBMX (SBI) (Hank’s balanced salt solution
# 167 (HBSS-Life Technology), 5 mmol/l Hepes, 0.1% BSA stabilizer (Perkin Elmer), 1 mmol/l
# 168 isobutylmethylxanthine (IBMX, Sigma Aldrich, pH 7.4)). For cAMP assay with mpkCCD
# 169 cells, the cells were grown on 12 mm Transwell filters (0.4 μm pore size, Corning Costar,
# 170 Cambridge, MA) until they reach confluency (4-5 days). For forskolin experiments, culture
# 171 media was replaced with SBI in apical and basolateral compartments. After 30 min of […]
# anti-K17F serum = assay: Inhibition of [125I]-pE13F binding to anti-K17F serum (apelin RIA, cross-reactivity); design: species or system rabbit; conditions: read-out: IC50, recognition by antibody directed against K17F, antiserum 1/4500
# Description: (§1) The columns were then treated as described in
# (§2) Samples (0.1ml) w ere mixed with 125I-
# (§3) 212 used this radioligand instead of [Glp65, Nle75, Tyr77] [125I]-apelin13 since the substitution of
# (§4) 214 derivatives as described previously by 3,4.
# (§5) 216 incubated for 10 min at room temperature.
# (§6) This antiserum identified the apelin present in the
# Most of the apelin in human plasma was […]
# in vivo = conditions: for Apelin (plasma apelin-immunoreactive level): single animals
# Description: (§7) 187 Apelin radioimmunoassay
# 188 Plasma samples (0.5 ml) were acidified with 0.175 ml of 3 mol/l HCl and stored at -80°C
# 189 until use for apelin RIA. Before thawing the sample on ice, 0.05% BSA was added, and the
# 190 samples were centrifuged at 20000 x g at 4°C for 10 min. The supernatants were collected and
# 191 the pH was adjusted to 6.5 with 10 mol/l NaOH and 2 mol/l Tris-HCl buffer (pH 7.4). Apelin
# 192 was extracted from plasma by mixing the supernatant with 0.3 ml of 0.1% BSA in H2O and 1
# 193 ml of 1% trifluoroacetic acid (TFA) - 0.1% BSA, and running the mixture on a Sep-Pak C18
# 194 cartridge (Waters) previously washed with 2 ml 100% acetonitrile and equilibrated with 5 ml
# 195 1% TFA - 0.1% BSA. The columns then were washed with 3 ml 1% TFA - 0.1% BSA and
# 196 apelin was eluted with 1.5 ml 100% acetonitrile. […]
# 208 Plasma or brain apelin levels w ere deter mined by RIA. Samples (0.1ml) w ere mixed with 125I-
# 211 dilution: 1/4500) to give a total volume of 0.2 ml and were incubated at 4°C overnight. We
# as §3, §4
# 215 We then added 0.5 ml of Amerlex (Amersham RPN 510), and the resulting mixture was
# 216 incubated for 10 min at room temperature. The tubes were centrifuged at 2600 x g at 4°C for
# 217 20 min. The supernatant was removed and the radioactivity of the precipitates was measured.
# 218 We assessed the cross-reactivity of the apelin antiserum with various N- and C-terminally
# 232 according to the following equation: [plasma apelin] tx = [plasma apelin] t0 * e(-kt) , where k is
# 233 the elimination rate constant. […]
# control rats = assay: Plasma AVP and apelin-IR levels in control rats (RIA); type: in vivo, rat; design: Apelin / AVP: unit not given here
# Description: as §7
# 189 until use for apelin RIA.
# The supernatants were collected and
# The samples were dried and dissolved in
# 201 centrifuged (17000 x g, 4°C, 20 min). The supernatant (4 ml) was collected, and mixed with
# as §1, §2, §3, §4, §5, §6
# Most of the apelin in human plasma was
# 252 TechMedILL platfor m (Illkirch) reviewed and approved by the agriculture ministry regulating
# 256 Male Sprague-Dawley rats were killed by decapitation, and trunk blood was collected on ice
# 257 (into 50 µl of 0.3M EDTA (pH 7.4) per 1 ml of blood). Samples were centrifuged (2,600 x g,
# 258 4°C, 20 min), and the resulting plasma was split into 500 µl aliquots, to which we added 168
# 259 µl of 3N HCl before storage at -80°C. The AVP RIA was performed as previously described
# 260 5, using a specific AVP-[Arg8] antibody (final dilution, 1/4.5) and [125I]-(Tyr2Arg8)-AVP
# 261 (2200 Ci/mmol, Perkin-Elmer, Billerica, MA; 15000 dpm) as a tracer. […]
# mice = assay: Left ventricular ejection fraction by echocardiography in mice; type: in vivo, mouse
# Description: LVEF was determined in mice under isoflurane anesthesia at baseline and 3 h after s.c. administration of the compound, as previously described.
# [1] = in plasma; cited from earlier work
structure (smiles),measurement,setting,value
CSCC[C@H](NC(=O)[C@@H]1CCCN1C(=O)CNC(=O)[C@H](CCCCN)NC(=O)[C@H](Cc1c[nH]cn1)NC(=O)[C@H](CO)NC(=O)[C@H](CC(C)C)NC(=O)[C@H](CCCNC(=N)N)NC(=O)[C@@H]1CCCN1C(=O)[C@H](CCCNC(=N)N)NC(=O)[C@H](CCC(N)=O)NC(=O)[C@H](CCCNC(=N)N)NC(=O)[C@H](CCCNC(=N)N)NC(=O)[C@H](Cc1ccccc1)NC(=O)[C@H](CCCCN)NC(=O)CCC(F)(F)C(F)(F)C(F)(F)C(F)(F)C(F)(F)C(F)(F)C(F)(F)C(F)(F)F)C(=O)N1CCC[C@H]1C(=O)N[C@@H](Cc1ccccc1)C(=O)O [LIT01-196],inhibition of cAMP production induced by forskolin,"mpkCCD cells; 1 µmol/l compound, forskolin 1 µmol/l, mpkCCD cells, 30 min 37 °C",32%
same,"Forskolin-induced cAMP production, value (Fig 2C)","mpkCCD cells; Forskolin + peptide, single measurements",89
same,IC50,anti-K17F serum,0.56 ± 0.04 nM
same,plasma apelin levels,"in vivo; Sprague-Dawley rats, 30 min after s.c. 900 nmol/kg, basal 0.36 ± 0.05, n = 5",1.3 ± 0.22 pmol/mL
same,"in vivo half-life in the blood circulation, i.v.","in vivo; alert rats, 15 nmol/kg i.v., RIA",0.467 h
same,"in vivo half-life in the blood circulation, s.c.","in vivo; alert rats, 900 nmol/kg s.c., RIA",2.6 h
same,Apelin (plasma apelin-immunoreactive level),"in vivo; rats, 15 nmol/kg IV, time 5 min",3.535 and 7.0448
same,Apelin (plasma apelin-immunoreactive level),"in vivo; rats, 15 nmol/kg IV, time 7.5 min",6.127 and 4.75 and 3.783
same,Apelin (plasma apelin-immunoreactive level),"in vivo; rats, 15 nmol/kg IV, time 10 min",3.32 and 4.264
same,Apelin (plasma apelin-immunoreactive level),"in vivo; rats, 15 nmol/kg IV, time 15 min",3.56 and 2.876 and 2.207
same,Apelin (plasma apelin-immunoreactive level),"in vivo; rats, 15 nmol/kg IV, time 60 min",1.212 and 1.2225
same,Apelin (plasma apelin-immunoreactive level),"in vivo; rats, 900 nmol/kg SC, time 60 min",3.999 and 3.58
same,Apelin (plasma apelin-immunoreactive level),"in vivo; rats, 900 nmol/kg SC, time 120 min",2.002 and 1.919 and 1.949
same,Apelin (plasma apelin-immunoreactive level),"in vivo; rats, 900 nmol/kg SC, time 270 min",1.1931 and 0.8899 and 1.066
same,Apelin (plasma apelin-immunoreactive level),"in vivo; rats, 900 nmol/kg SC, time 360 min",1.029 and 0.9091 and 0.7789
same,Apelin (plasma apelin-immunoreactive level),"in vivo; rats, 900 nmol/kg SC, time 1440 min",0.4742 and 0.5151 and 0.6469
same,"plasma apelin levels, times higher than basal levels","in vivo; rats, 30 min after s.c. 900 nmol/kg",3.6 times
same,"plasma apelin-IR levels, higher than in control rats",control rats; 3 h after 900 nmol/kg s.c.,185%
same,"plasma apelin/AVP ratio, higher than in control rats",control rats; 3 h after 900 nmol/kg s.c.,105%
same,"plasma AVP levels, higher than in animals receiving saline","control rats; 3 h after s.c., tolvaptan 6700 nmol/kg, LIT01-196 900 nmol/kg",37%
same,AVP,"control rats; plasma AVP, LIT01-196 900 nmol/kg SC, individual animals (Fig. S4F source data)",22.8083 and 24.884 and 19.0278 and 19.6598 and 20.1271 and 24.6505 and 19.9264
same,Apelin,"control rats; plasma apelin-IR, LIT01-196 900 nmol/kg SC, individual animals (Fig. S4E source data)",1622 and 1536 and 1658 and 938 and 943 and 1033 and 1679
same,apelinAVPratio,"control rats; plasma apelin/AVP ratio, LIT01-196 900 nmol/kg SC, individual animals (Fig. S4G source data)",71.1145 and 61.7264 and 87.1356 and 47.7116 and 46.8522 and 41.9059 and 84.2603
same,FEVG.TM. 3 hours,"mice; 1200 nmol/kg SC, 3 hours, individual animals (Fig. S5B source data)",55.1558 and 58.4253 and 55.5031 and 58.4836 and 58.0536
same,FEVG.TM. Baseline,"mice; 1200 nmol/kg SC, baseline, individual animals (Fig. S5B source data)",49.7762 and 61.2453 and 58.1457 and 44.7681 and 49.1413
same,LVEF 3 h after administration,"mice; 1200 nmol/kg s.c., mice, n = 5, 52.6 ± 3.0 before administration, p = 0.31",57.1 ± 0.7%
same,plasma half-life,[1],> 24 h
